Earlier results, collected in paper PMC6544043 (ACS infectious diseases, 2019).

Target: adenosine/guanosine preferring nucleoside ribohydrolase (AGNH) (Trichomonas vaginalis, UniProt A2EYV3)
Settings: read-out: inhibitor potency; cited from earlier work

For `OC[C@H]1O[C@@H](n2cnc3c(NC4CCCC4)nc(Cl)nc32)[C@H](O)[C@@H]1O` [2-chloro-N(6)-cyclopenty-ladenosine], the IC50 is given as 9 µM.
